# Measured values published in patent US20220226397A1, “SYNERGISTIC COMBINATIONS OF ARGININE-PRODUCING BACTERIA AND/OR AMMONIA-CONSUMING BACTERIA AND CHECKPOINT INHIBITORS AND METHODS OF USE THEREOF” (Synlogic Operating Company, Inc., priority 2019, published 2022).
# System: MC38 tumors
# Assay: MC38 tumor growth and survival, oral L-arginine with or without αPD-L1
# Format: in vivo, C57BL/6 WT mice
# Settings: s.c. MC38; L-arginine 2 g/kg oral gavage daily; αPD-L1 200 μg i.p. every second day; compared to control group
# Description: FIGS. 1A, 1B, and 1C: 5×10^5 MC38 colon adenocarcinoma cells were injected s.c. in C57BL/6 WT mice and tumors were allowed to grow for 11 days before treatments were initiated. Control mice (n=13) received daily an oral gavage of H2O (100 μl) and every second day 200 μl of PBS i.p. The L-arginine group received daily an oral gavage of L-arginine (2 g/kg body weight in 100 μl) (n=19). The PD-L1 group received 200 μg of αPD-L1 mAb i.p. every second day (n=16). The Combo group received L-arginine (oral) and αPD-L1 (i.p.) (n=17). FIG. 1A depicts in vivo MC38 tumor growth (number of mice are indicated in the graph). Values represent mean tumor volume +/− SEM. FIG. 1C: Survival curves of different groups of mice. P values were determined by log-rank comparisons between the curves. FIG. 1B provide tumor growth curves of individual mice. P values were determined by two way ANOVA. *P<0.05, **P<0.01, ***P<0.001, ****P<0.0001, throughout.
# MC38 murine colon adenocarcinoma cells were cultured in RPMI 1640 plus 10% heat-inactivated FCS, 1 mM Na-Pyruvate and 50 μM β-mercaptoethanol. Female C57BL/6 mice between the ages of 5 to 10 weeks were implanted with the MC38 cells. […] The size of tumors was measured in a blinded fashion using calipers. […] Tumors were collected, digested and tumor-infiltrating lymphocytes (TILs) were analyzed by flow cytometry.
structure (smiles),measurement,value
N=C(N)NCCC[C@H](N)C(=O)O [L-arginine],MC38 tumor growth,slightly reduced
